Experimental data as given in patent US12703704B2, “Process for preparing a composition comprising enantiomerically enriched pyrrolo[2,3-d]pyrimidines” (Sun Pharmaceutical Industries, Inc., priority 2020, dated 2026).

Tests used:
JAK1 = JAK1 (Homo sapiens, UniProt P23458); test: JAK1 inhibition (IC50); assay type: biochemical; conditions: Compound A or a pharmaceutically acceptable salt thereof
JAK2 = JAK2 (Homo sapiens, UniProt O60674); test: JAK2 inhibition (IC50); assay type: biochemical; conditions: Compound A or a pharmaceutically acceptable salt thereof
JAK2, sequence (O60674 whole entry): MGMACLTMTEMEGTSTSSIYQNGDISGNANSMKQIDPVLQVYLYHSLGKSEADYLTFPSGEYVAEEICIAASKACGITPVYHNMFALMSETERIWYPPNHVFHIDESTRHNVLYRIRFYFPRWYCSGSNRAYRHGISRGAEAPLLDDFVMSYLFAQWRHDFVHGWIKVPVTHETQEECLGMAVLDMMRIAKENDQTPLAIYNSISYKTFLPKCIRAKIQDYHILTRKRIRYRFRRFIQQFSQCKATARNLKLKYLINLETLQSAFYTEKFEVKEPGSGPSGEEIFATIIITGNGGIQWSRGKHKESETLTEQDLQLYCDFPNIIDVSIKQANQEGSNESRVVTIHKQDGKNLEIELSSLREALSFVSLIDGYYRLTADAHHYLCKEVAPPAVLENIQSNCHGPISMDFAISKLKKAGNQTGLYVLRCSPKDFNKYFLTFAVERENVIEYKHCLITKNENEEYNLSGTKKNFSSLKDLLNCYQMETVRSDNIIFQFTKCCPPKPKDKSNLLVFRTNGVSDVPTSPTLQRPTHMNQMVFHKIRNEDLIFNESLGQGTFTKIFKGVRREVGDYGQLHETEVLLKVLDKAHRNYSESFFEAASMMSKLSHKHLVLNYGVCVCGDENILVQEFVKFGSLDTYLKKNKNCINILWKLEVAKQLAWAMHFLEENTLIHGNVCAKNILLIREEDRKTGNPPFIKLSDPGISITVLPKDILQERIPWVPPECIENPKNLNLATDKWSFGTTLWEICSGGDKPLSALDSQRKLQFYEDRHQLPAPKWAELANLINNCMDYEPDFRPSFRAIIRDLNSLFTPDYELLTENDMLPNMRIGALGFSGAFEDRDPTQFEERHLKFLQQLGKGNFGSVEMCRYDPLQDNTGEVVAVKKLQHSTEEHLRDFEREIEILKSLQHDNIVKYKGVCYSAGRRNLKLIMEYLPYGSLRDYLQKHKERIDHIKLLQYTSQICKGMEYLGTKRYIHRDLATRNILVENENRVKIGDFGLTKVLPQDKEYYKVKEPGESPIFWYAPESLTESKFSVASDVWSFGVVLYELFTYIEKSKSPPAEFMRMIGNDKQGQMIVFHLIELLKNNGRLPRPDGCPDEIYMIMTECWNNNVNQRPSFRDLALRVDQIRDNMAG

JAK1, sequence (P23458 whole entry): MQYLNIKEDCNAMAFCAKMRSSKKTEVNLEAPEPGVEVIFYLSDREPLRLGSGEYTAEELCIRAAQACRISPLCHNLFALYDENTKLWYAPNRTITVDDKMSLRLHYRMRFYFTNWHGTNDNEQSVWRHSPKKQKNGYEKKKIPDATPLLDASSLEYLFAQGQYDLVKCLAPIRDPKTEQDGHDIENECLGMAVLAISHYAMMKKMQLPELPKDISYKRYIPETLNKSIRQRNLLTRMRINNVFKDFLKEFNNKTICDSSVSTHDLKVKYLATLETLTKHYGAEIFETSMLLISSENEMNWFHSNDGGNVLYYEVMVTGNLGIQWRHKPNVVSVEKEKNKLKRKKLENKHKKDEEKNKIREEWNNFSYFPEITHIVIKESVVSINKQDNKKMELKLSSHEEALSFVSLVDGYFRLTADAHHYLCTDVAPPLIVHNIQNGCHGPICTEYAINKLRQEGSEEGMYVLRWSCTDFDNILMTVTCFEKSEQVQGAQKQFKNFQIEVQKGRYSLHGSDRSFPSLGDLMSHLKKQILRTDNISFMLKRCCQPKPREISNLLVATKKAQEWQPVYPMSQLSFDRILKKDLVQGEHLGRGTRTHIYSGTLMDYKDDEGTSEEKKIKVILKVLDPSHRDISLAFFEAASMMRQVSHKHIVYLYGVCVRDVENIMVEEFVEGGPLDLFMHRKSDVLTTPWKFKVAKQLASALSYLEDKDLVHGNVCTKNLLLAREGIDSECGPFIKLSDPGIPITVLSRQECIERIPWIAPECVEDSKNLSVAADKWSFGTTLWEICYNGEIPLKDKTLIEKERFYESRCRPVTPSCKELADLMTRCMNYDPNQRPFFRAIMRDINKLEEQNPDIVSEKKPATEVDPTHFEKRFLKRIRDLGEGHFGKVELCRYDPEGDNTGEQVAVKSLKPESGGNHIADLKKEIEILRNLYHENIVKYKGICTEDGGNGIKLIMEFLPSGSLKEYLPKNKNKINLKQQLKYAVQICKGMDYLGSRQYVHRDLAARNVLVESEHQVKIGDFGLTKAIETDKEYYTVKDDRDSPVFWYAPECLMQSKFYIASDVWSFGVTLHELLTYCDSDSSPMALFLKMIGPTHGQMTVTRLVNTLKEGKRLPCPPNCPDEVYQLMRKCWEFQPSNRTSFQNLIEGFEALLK

[2H]C1([2H])C([C@@H](CC(N)=O)n2cc(-c3ncnc4[nH]ccc34)cn2)C([2H])([2H])C([2H])([2H])C1([2H])[2H] [Compound A, (R)-3-(4-(7H-pyrrolo[2,3-d]pyrimidin-4-yl)-1H-pyrazol-1-yl)-3-(cyclopentyl-2,2,3,3,4,4,5,5-d8) propanamide]
IC50 (JAK1): < 0.1 µM
IC50 (JAK2): < 0.1 µM
